US20120165319A1, “INHIBITORS OF INTERLEUKIN-1 BETA CONVERTING ENZYME” (VERTEX PHARMACEUTICALS INCORPORATED, priority 1995, published 2012)

Experiments:
[1] = target: T1, ICE (Homo sapiens, UniProt P29466); assay: Enzyme assay with UV-visible substrate (visible ICE assay, Succinyl-Tyr-Val-Ala-Asp-pNitroanilide); type: biochemical
T1 sequence (P29466 120-297 limits assumed): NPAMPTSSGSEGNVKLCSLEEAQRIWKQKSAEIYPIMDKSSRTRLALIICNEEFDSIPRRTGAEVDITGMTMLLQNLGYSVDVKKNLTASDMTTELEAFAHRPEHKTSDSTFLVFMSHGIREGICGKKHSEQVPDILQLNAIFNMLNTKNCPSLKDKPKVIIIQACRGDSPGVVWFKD
T1 sequence (P29466 317-404 limits assumed): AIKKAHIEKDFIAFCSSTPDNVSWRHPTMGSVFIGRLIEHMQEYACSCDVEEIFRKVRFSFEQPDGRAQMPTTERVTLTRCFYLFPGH
How it was run: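 Read-out is the rate of pNA chromophore release (mOD/min, linear fit) monitored at 405-603 nm over 20 min at 37° C. Substrate was succinyl-Tyr-Val-Ala-Asp-pNitroanilide, added after a 15 min room-temperature preincubation of ICE with inhibitor.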

[2] = tested on: IL-1β, human peripheral blood mononuclear cells (PBMC); assay: PBMC cell assay: IL-1β assay with human PBMC or enriched adherent mononuclear cells, LPS-stimulated; type: cell-based
How it was run: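 Mature IL-1β is measured by ELISA in supernatants after 16–18 hr at 37 °C, 5% CO2, with LPS (5 ng/ml final) and test compound (0.1% DMSO final). Cells are human PBMC (6×10^6 cells/ml) or plate-adherent mononuclear cells (2.5−3.0×10^5 per well), and the 5–6 compound concentrations span the ICE Ki.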

[3] = In vivo rat clearance assay; conditions: plasma, iv, 10-20 mg/kg
How it was run: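 Rats cannulated a day beforehand received 10–20 mg/kg by intravenous jugular dosing in propylene glycol/saline with 100 mM sodium bicarbonate. Carotid blood was sampled from 0 to 90 min, and plasma was extracted with acetonitrile/0.1% TFA for HPLC quantification. Clearance from non-linear regression pharmacokinetic analysis.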

[4] = Homo sapiens, PBMC, * = values obtained upon reassay

SMILES | IC50 [2, 4] | Ki ([1]; Table 5) | other results
O=C1C[C@H](NC(=O)[C@@H]2CCCN3C(=O)CC[C@H](NC(=O)c4ccccc4)C(=O)N23)C(OCCc2ccccc2)O1 (mixture of isomers) [Compound 2100k, [1S,9S(2RS,3S)]9-Benzoylamino-6,10-dioxo-1,2,3,4,7,8,9,10-octahydro-N-(2-phenethyloxy-5-oxotetrahydrofuran-3-yl)-6H-pyridazino[1,2-a][1,2]diazepine-1-carboxamide] | – | – | Ki ([1]; Table 17): 520 nM; IC50 ([2]; Homo sapiens, PBMC, Table 17): 4000 nM
O=C1C[C@H](NC(=O)[C@@H]2CCCN3C(=O)CC[C@H](NC(=O)c4ccccc4)C(=O)N23)C(OCc2ccccc2)O1 (single isomer, unassigned) [Compound 2100n] | – | – | Ki ([1]; Table 17): 670 nM; IC50 ([2]; Homo sapiens, PBMC, Table 17): 770 nM
CS(=O)(=O)N[C@H]1CCC(=O)N2CCC[C@@H](C(=O)N[C@@H](CC(=O)O)C(=O)COC(=O)c3sccc3Cl)N2C1=O [505 e, [3S(1S,9S)]5-(3-Chlorothien-2-oyloxy)-3-(6,10-dioxo-9-methanesulphonylamino-1,2,3,4,7,8,9,10-octahydro-6H-pyridazino[1,2-a][1,2]diazepine-1-carboxamido)-4-oxopentanoic acid] | – | – | IC50 ([2]; Table 18): 9000 nM
O=C[C@H](CC(=O)O)NC(=O)[C@@H]1CCCN2C(=O)CC[C@H](NC(=O)CCc3ccccc3)C(=O)N12 [Compound 47a, [3S(1S,9S)]3-(6,10-Dioxo-octahydro-9-(3-phenylpropionylamino)-6H-pyridazino[1,2-a][1,2]diazepine-1-carboxamido)-4-oxobutanoic acid] | 2600 nM | – | clearance [3]: 32 mL/min/kg
O=C(O)C[C@H](NC(=O)[C@@H]1CCCN2C(=O)CC[C@H](NC(=O)CCc3ccccc3)C(=O)N12)C(=O)CSCc1ccccc1Cl [Compound 125b, [3S(1S,9S)]-3-(6,10-dioxo-1,2,3,4,7,8,9,10-octahydro)-9-(3-phenylpropionyl-amino)-6H-pyridazine[1,2-a][1,2]diazepine-1-carboxamido-5-(2-chlorophenyl-methylthio)-4-oxopentanoic acid] | 800 nM | – | –
COc1cccc2nc(C(=O)[C@H](CC(=O)O)NC(=O)[C@@H]3CCCN4C(=O)CC[C@H](NC(=O)CCc5ccccc5)C(=O)N34)oc12 [Compound 135a] | 2800 nM | – | –
O=C(O)C[C@H](NC(=O)[C@@H]1CCCN2C(=O)CC[C@H](NC(=O)CCc3ccccc3)C(=O)N12)C(=O)COC(=O)c1c(Cl)cccc1Cl [Compound 136] | 870 nM | – | –
O=C(O)C[C@H](NC(=O)[C@@H]1CCCN2C(=O)CC[C@H](NC(=O)CCc3ccccc3)C(=O)N12)C(=O)c1ncc(-c2c(Cl)cccc2Cl)o1 [Compound 137] | 1700 nM | – | –
CS(=O)(=O)N[C@H]1CCC(=O)N2CCC[C@@H](C(=O)N[C@@H](CC(=O)O)C(=O)COC(=O)c3c(Cl)cccc3Cl)N2C1=O [Compound 138] | 900 nM | – | –
O=C1C[C@H](NC(=O)[C@@H]2CCCN3C(=O)CC[C@H](NC(=O)c4ccccc4)C(=O)N23)C(OCc2ccccc2)O1 (stereo partly drawn) [Compound 213e, [1S,9S(2RS,3S)]9-Benzoylamino-6,10-dioxo-1,2,3,4,7,8,9,10-octahydro-N-(2-benzyloxy-5-oxotetrahydrofuran-3-yl)-6H-pyridazino[1,2-a][1,2]-diazepine-1-carboxamide] | 900 nM | 130 nM | –
CC(=O)N[C@H]1CCC(=O)N2CCC[C@@H](C(=O)N[C@@H](CC(=O)O)C(=O)COC(=O)c3c(Cl)cccc3Cl)N2C1=O [Compound 217c, [3S(1S,9S)]3-(9-Acetylamino-6,10-dioxo-1,2,3,4,7,8,9,10-octahydro-6H-pyridazino-[1,2-a][1,2]diazepine-1-carboxamido)-5-(2,6-dichlorobenzoyloxy)-4-oxopentanoic acid] | 1700 nM | – | –
O=C(O)C[C@H](NC(=O)[C@@H]1CCCN2C(=O)CC[C@H](NC(=O)OCc3ccccc3)C(=O)N12)C(=O)COC(=O)c1c(Cl)cccc1Cl [Compound 217d, [3S(1S,9S)]3-(9-Benzyloxycarbonylamino-6,10-dioxo-1,2,3,4,7,8,9,10-octahydro-6H-pyridazino[1,2-a][1,2]-diazepine-1-carboxamido)-5-(2,6-dichlorobenzoyloxy)-4-oxopentanoic acid] | 340 nM | – | –
O=C(O)C[C@H](NC(=O)[C@@H]1CCCN2C(=O)CC[C@H](NC(=O)c3ccccc3)C(=O)N12)C(=O)COC(=O)c1c(Cl)cccc1Cl [Compound 217e, [3S(1S,9S)]3-(9-Benzoylamino-6,10-dioxo-1,2,3,4,7,8,9,10-octahydro-6H-pyridazino[1,2-a][1,2]-diazepine-1-carboxamido)-5-(2,6-dichlorobenzoyloxy)-4-oxopentanoic acid] | 175 nM | – | –
O=C(O)C[C@H](NC(=O)[C@@H]1CCCN2C(=O)CC[C@H](NC(=O)c3ccccc3)C(=O)N12)C(=O)c1nc2cc(Cl)cc(Cl)c2o1 [Compound 223e, [3S(1S,9S)]3-(9-Benzoylamino-6,10-dioxo-1,2,3,4,7,8,9,10-octahydro-6H-pyridazino-[1,2-a][1,2]diazepine-1-carboxamido)-4-(5,7-dichlorobenzoxazol-2-yl)-4-oxobutanoic acid] | 3000 nM | 1.6 nM | –
O=C(O)C[C@H](NC(=O)[C@@H]1CCCN2C(=O)CC[C@H](NC(=O)c3ccccc3)C(=O)N12)C(=O)CSCc1ccccc1Cl [Compound 226e, [3S(1S,9S)]3-(9-Benzoylamino-6,10-dioxo-1,2,3,4,7,8,9,10-octahydro-6H-pyridazino[1,2-a][1,2]-diazepine-1-carboxamido)-5-(2-chlorophenyl)methylthio-4-oxopentanoic acid] | 1100 nM | 15 nM | –
O=C(O)CC(NC(=O)[C@@H]1CCCN2C(=O)CC[C@H](NC(=O)c3ccccc3)C(=O)N12)C(=O)CF (stereo partly drawn) [Compound 230e, [3RS,(1S,9S)]3-(9-Benzoylamino-6,10-dioxo-1,2,3,4,7,8,9,10-octahydro-6H-pyridazino[1,2-a][1,2]-diazepine-1-carboxamido)-5-fluoro-4-oxopentanoic acid] | – | – | IC50 ([2]; * = values obtained upon reassay): 325 nM
O=C[C@H](CC(=O)O)NC(=O)[C@@H]1CCCN2CCC[C@H](NC(=O)c3ccccc3)C(=O)N12 [Compound 246] | 950 nM | 12 nM | –
CC(C)(C)OC(=O)C[C@@H](C=O)NC(=O)[C@@H]1CCCN2C(=O)CC[C@H](NC(=O)c3ccccc3)C(=O)N12 [Compound 302, [3S(1S,9S)3-(9-Benzoylamino-6,10-dioxo-1,2,3,4,7,8,9,10-octahydro-6H-pyriazino-[1,2-a][1,2]diazapine-1-carboxamido)-amino]-4-oxobutanoic acid tert-butyl ester] | > 20000 nM | 4500 nM | –
CC(=O)N1C[C@H](NC(=O)c2ccc3ccccc3c2)C(=O)N(CC(=O)N[C@H](C=O)CC(=O)O)c2ccccc21 [Compound 605n] | 2100 nM | 12 nM | –
O=C1C[C@H](NC(=O)[C@@H]2CCCN3C(=O)CC[C@H](NC(=O)C(=O)c4ccccc4)C(=O)N23)C(OCc2ccccc2)O1 (stereo partly drawn) [Compound 2001, [1S,9S(2RS,3S)]9-Benzoylformylamino-6,10-dioxo-1,2,3,4,7,8,9,10-octahydro-N-(2(R,S)-benzyloxy-5-oxotetrahydrofuran-3-yl)-6H-pyridazino[1,2-a][1,2]-diazepine-1-carboxamide] | 1800 nM | 135 nM | –
CC(C)OC1OC(=O)C[C@@H]1NC(=O)[C@@H]1CCCN2C(=O)CC[C@H](NC(=O)c3ccccc3)C(=O)N12 (stereo partly drawn) [Compound 2100a, [1S,9S(2RS,3S)]9-Benzoylamino-6,10-dioxo-1,2,3,4,7,8,9,10-octahydro-N-(2-isopropoxy-5-oxo-tetrahydro-furan-3-yl)-6H-pyridazino-[1,2-a][1,2]diazepine-1-carboxamide] | 1100 nM | 100 nM | –
CCOC(=O)C[C@H](NC(=O)[C@@H]1CCCN2C(=O)CC[C@H](NC(=O)c3ccccc3)C(=O)N12)C(OCC)OCC [Compound 2100b] | > 20000 nM | 8000 nM | –
COC(=O)C[C@H](NC(=O)[C@@H]1CCCN2C(=O)CC[C@H](NC(=O)c3ccccc3)C(=O)N12)C(OC)OC [Compound 2100c] | > 20000 nM | 7400 nM | –
CC(C)OC(=O)C[C@H](NC(=O)[C@@H]1CCCN2C(=O)CC[C@H](NC(=O)c3ccccc3)C(=O)N12)C(OC(C)C)OC(C)C [Compound 2100d] | > 20000 nM | > 100000 nM | –
CCOC1OC(=O)C[C@@H]1NC(=O)[C@@H]1CCCN2C(=O)CC[C@H](NC(=O)c3ccccc3)C(=O)N12 (stereo partly drawn) [Compound 2100e, [1S,9S(2RS,3S)]9-Benzoylamino-6,10-dioxo-1,2,3,4,7,8,9,10-octahydro-N-(2-ethoxy-5-oxo-tetrahydro-furan-3-yl)-6H-pyridazino[1,2-a][1,2]-diazepine-1-carboxamide] | 800 nM | 250 nM | –
O=C1C[C@H](NC(=O)[C@@H]2CCCN3C(=O)CC[C@H](NC(=O)c4ccccc4)C(=O)N23)[C@H](OCc2ccccc2)O1 [Compound 2100o, [1S,9S(2R,3S)]9-Benzoylamino-N-(2-benzyloxy-5-oxotetrahydrofuran-3-yl)-6,10-dioxo-1,2,3,4,7,8,9,10-octahydro-6H-pyridazino[1,2-a][1,2]diazepine-1-carboxamide] | – | – | Ki ([1]; Table 17): 670 nM; IC50 ([2]; Homo sapiens, PBMC, Table 17): 1150 nM
